Series [1] has as its system IL-6. The class given is in vivo, rats. The conditions noted are these: Dex 1274 and 127 nmol/kg IV; dCIC 1274 nmol/kg IA or 127 nmol/kg IV; conjugate 127, 51 and 13 nmol/kg IV; four hours after IL-1β.
Protocol: In this example, an IL-1β Challenge rat model was used for the evaluation of peptides-drug conjugates. In this model, IL-1β is injected intra-articularly (i.e., IA) into a single knee joint to induce an inflammatory state that can be quantified by measuring IL-6 levels in joint lavage fluid (EXAMPLE 30). The primary goal of using this model was to induce a localized inflammatory state in the joint, as opposed to the systemic inflammation induced in other models, as a way to differentiate localized delivery of dCIC to the joint from systemic administration of the steroid. […] CBC counts were used to assess any reductions in various white blood cell levels, which are established markers of systemic exposure to glucocorticoids. […]
IL-6 was measured in knee lavage fluid using a Luminex assay and levels were normalized to total protein in the lavage fluid (FIG. 24). […] Terminal synovial fluid was collected from all animals and analyzed by Luminex 200 for IL-6 cytokine concentrations using EMD Milliplex MAP Rat Cytokine/Chemokine Magnetic Panel ([sequence]-65K). […] Thymus and spleen were harvested and their organ weights determined.
Series [2] is described as follows: IL-1β challenge rat model, follow-up study: WBC, lymphocyte and monocyte counts. The series is classed as in vivo, rats. The conditions noted are these: 2.75 hours; peptide 127, conjugate 51 and 13 nmol/kg IV; dCIC 1274 IA, 127 and 51 IV. Here is the method:
This study was conducted in an identical manner to the dose-ranging study described further above in this EXAMPLE with regard to timing of test agent administration, collection of blood for CBC, injection of IL-1β, and lavage of the knee following euthanasia. In this study, the blood collected at euthanasia was submitted for both CBC and serum chemistry, and thymus and spleen weights were not measured because there was no evidence of treatment effect for dCIC and peptide-dCIC on these organs in the dose-ranging study. Assessment of biomarkers of steroid exposure in blood of rats as part of a PD study as shown in FIG. 27: # denotes dose administered by IA injection, all other treatments were administered IV. The treatment groups included the following test articles: (i) no IL-1β negative control (denoted “No IL-1b”); (ii); vehicle only control for the peptide-drug conjugate (denoted as “vehicle”), which was (5% DMSO in PBS); (iii) the peptide-only control peptide(SEQ ID NO: 105) at 127 nmol/kg (denoted over “Peptide” as “127”); (iv) 3 dose levels of dCIC, 1274 nmol/kg IA, 127 nmol/kg IV, 51 nmol/kg IV (denoted over “dCIC” as “1274 #”, “127” and “51” respectively); (v) and 2 dose levels of peptide(SEQ ID NO: 105)-DMA-dCIC (51 nmol/kg, 13 nmol/kg) (denoted over “Peptide(SEQ ID NO: 105)-DMA-dCIC” as “51” and “13” respectively), each of (i)-(v) with n=10 animals per dose group, except for no Il-1β control and peptide-only control arms which had n=6 animals per dose group. Doses are listed as nmol/kg. Statistical analysis was conducted using Wilcoxon rank-sum test with correction for multiple comparisons using Holm's method.

The nature of series [3]: IL-1β challenge rat model, dose-ranging study: CBC, organ weights, tolerability. The class given is in vivo, rats. Here is the method: IL-6 was measured in knee lavage fluid using a Luminex assay and levels were normalized to total protein in the lavage fluid (FIG. 24). Assessment of the PD inflammatory marker IL-6 in the knee joints of rats challenged with IL-1β was performed. Terminal synovial fluid was collected from all animals and analyzed by Luminex 200 for IL-6 cytokine concentrations using EMD Milliplex MAP Rat Cytokine/Chemokine Magnetic Panel ([…]-65K). […] Doses are listed as nmol/kg The masses of these doses are given below in TABLE 16. Two hours and forty-five minutes (i.e., 2.75 hrs) after administration of the test agents, animals were gently heated and blood was drawn from the tail vein for CBC analysis. Animals were then anesthetized with inhaled isoflurane and injected with 30 ng of IL-1β into the right knee (except for no IL-1β group). Four hours after administration of IL-1β (seven hours after administration of test agent) the animals were euthanized. Blood was drawn for a second CBC analysis and the right knee was lavaged for detection of IL-6 in the lavage fluid using a Luminex assay. Thymus and spleen were harvested and their organ weights determined.
In the same animals for which IL-6 secretion was measured, CBC data (e.g., lymphocyte counts) were also analyzed (FIG. 25) at an early time-point, 2.75 hrs post administration of the test article (FIG. 25A), and at euthanasia 7 hrs post administration (FIG. 25B). All treatments were administered as described above for the measurement of IL-6 secretion.
All treatments and test articles were administered as described above, except for an additional treatment group that received 510 nmol/kg of the peptide-drug conjugate peptide(SEQ ID NO: 105)-DMA-dCIC.

A short description of series [4]: Solubility for formulation. The series is classed as physicochemical. The conditions noted are these: aqueous formulation for systemic delivery. The source says: This study was designed to test whether dCIC delivered by a peptide would enable local suppression of inflammation in the joint while reducing systemic exposure to dCIC compared to that obtained when dosing therapeutic levels of dCIC alone. To enable systemic delivery of dCIC (unconjugated), it was formulated in 40% propylene glycol and then heated in order to solubilize the molecule. […] The peptide-drug conjugates of the disclosure can have a water solubility that allows conjugates to be formulated for systemic delivery, wherein at least some of the drugs used in the peptide-drug conjugates may not have sufficient water solubility for systemic administration when not conjugated to peptide. The conjugates comprising those drugs can home, target, migrate to, accumulate in, bind to, be retained by, or be redirected to a cartilage of a subject.

A short description of series [5]: Biodistribution in mice of stable peptide-TAA conjugate by whole body autoradiography (QWBA). The class given is in vivo. The conditions noted are these: 100 nmol IV, 3 hours and 24 hours. On the procedure:
Peptide(SEQ ID NO: 105)-^14C-Cys-TAA (38, the radiolabeled conjugate prepared in EXAMPLE 7) (“peptide(SEQ ID NO: 105)-^14C-Cys” is disclosed as SEQ ID NO: 512) or ^14C-Cys-TAA was resuspended in 5% DMSO in water. The amount of radioactivity per μ1 of solution was measured using liquid scintillation counting (LSC). Each compound was administered intravenously to mice at a dose of 12.4 μCi (100 nmol) and allowed to circulate for the designated time intervals. The mice were then humanely euthanized and carcasses were frozen in dry ice chilled hexane. QWBA was performed and quantified as described. […]
Quantification of the radioactivity detected in WBA samples was evaluated by measuring the pixel density/mm^2 (“SI”: Signal Intensity/Area−background) using AIDA Image Analyzer v 5.1 Whole Body Autoradiography Professional software (Raytest). […] For quantification, all visible knee or IVD (intervertebral disc) tissues for one rodent across all collected sections were measured and averaged together to generate one knee or IVD value per animal. […] To collect quantified values for other tissues, ROIs were drawn around blood in the heart ventricle, spinotrapezius muscle, the liver, or the kidney (including cortex and medulla) in all sections in which the tissue was observed and then averaged to yield one value per tissue per animal. […]

Here are results for two compounds from patent publication US20210252159A1, “CONJUGATES OF CARTILAGE-HOMING PEPTIDES” (priority 2018, published 2021).

As for `C[C@]12C=CC(=O)C=C1CC[C@@H]1[C@@H]2[C@@H](O)C[C@@]2(C)[C@H]1C[C@H]1O[C@@H](C3CCCCC3)O[C@]12C(=O)CO` [dCIC, des-ciclesonide], the “IL-6 concentration in knee lavage fluid normalized to total protein, compared to vehicle” value in series [1] was “decrease in IL-6 concentrations”. In series [2], the “Total WBC counts” value is “substantial reduction”, the lymphocyte counts entry was “substantial reduction” and the monocyte counts entry is “substantial reduction”. Moreover, the “monocytes (CBC)” value in series [3] (2.75 hours post-treatment) is “dose dependent decrease”. For the same compound, the “Lymphocyte counts as compared to vehicle control” value in series [3] (2.75 hrs post administration, Dex both doses, dCIC IA or IV) is given as “reduction in lymphocyte counts”. In series [3] (7 hours post administration), the “spleen and thymus weights at euthanasia” value is reported as “minimal effect on the weight of both organs”. Further, the “Lymphocyte counts at euthanasia” value in series [3] (7 hours post administration, all dose levels) is “either stable or starting to recover”. In series [4], the solubility result was “not soluble in water”.
For the compound “^14C-Cys-triamicinolone acetonide [^14C-Cys-TAA, reference compound]”, the “signal in cartilage (whole body autoradiography)” value in series [5] is on record as “no observable signal”.
